# What was measured:
# PrP^Sc [1] = molecular target: PrP^Sc (Mesocricetus auratus, UniProt P04273); design: species or system Syrian hamster; conditions: Hyper-hamster PrPSc pellet
# PrP^Sc [2] = molecular target: PrP^Sc (Mus musculus, UniProt P04925); conditions: FVB-RML mouse PrPSc pellet
# Sequence of PrP^Sc (Mus musculus, UniProt P04925) (P04925 23-230 limits assumed): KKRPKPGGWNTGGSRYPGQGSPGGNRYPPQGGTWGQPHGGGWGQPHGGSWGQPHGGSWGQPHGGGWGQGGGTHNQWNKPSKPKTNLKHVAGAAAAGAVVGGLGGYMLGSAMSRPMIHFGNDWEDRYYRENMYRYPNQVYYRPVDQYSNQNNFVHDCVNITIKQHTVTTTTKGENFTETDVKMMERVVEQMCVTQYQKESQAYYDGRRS
# Sequence of PrP^Sc (Mesocricetus auratus, UniProt P04273) (P04273 23-231 limits assumed): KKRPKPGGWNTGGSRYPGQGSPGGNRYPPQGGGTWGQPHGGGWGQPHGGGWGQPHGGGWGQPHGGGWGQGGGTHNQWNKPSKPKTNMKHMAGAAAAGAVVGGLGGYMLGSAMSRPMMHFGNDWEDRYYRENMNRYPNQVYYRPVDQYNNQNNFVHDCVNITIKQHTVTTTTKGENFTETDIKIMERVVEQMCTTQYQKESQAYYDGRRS
smiles,measurement,setting,value
CCCCCCCCCCCC(=O)N(C)CC(=O)[O-].[Na+] [Sarkosyl],calculated amount of lipid: DG,PrP^Sc [1],0
same,calculated amount of lipid: FA (free fatty acid),PrP^Sc [1],0
same,calculated amount of lipid: FC (free cholesterol),PrP^Sc [1],24.35
same,calculated amount of lipid: PC (phosphatidylcholine),PrP^Sc [1],21.46
same,calculated amount of lipid: PE (phosphatidylethanolamine),PrP^Sc [1],8.57
same,calculated amount of lipid: PI (phosphatidylinositol),PrP^Sc [1],0
same,calculated amount of lipid: PS (phosphatidylserine),PrP^Sc [1],2.23
same,calculated amount of lipid: SM (sphingomyelin),PrP^Sc [1],3.12
same,calculated amount of lipid: CE (cholesterol esters),PrP^Sc [2],3.54
same,calculated amount of lipid: DG,PrP^Sc [2],0
same,calculated amount of lipid: FA (free fatty acid),PrP^Sc [2],0
same,calculated amount of lipid: FC (free cholesterol),PrP^Sc [2],31.17
same,calculated amount of lipid: PC (phosphatidylcholine),PrP^Sc [2],16.80
same,calculated amount of lipid: PE (phosphatidylethanolamine),PrP^Sc [2],21.83
same,calculated amount of lipid: PI (phosphatidylinositol),PrP^Sc [2],1.92
same,calculated amount of lipid: PS (phosphatidylserine),PrP^Sc [2],8.05
same,calculated amount of lipid: SM (sphingomyelin),PrP^Sc [2],1.58
same,calculated amount of lipid: TG (triglycerides),PrP^Sc [2],4.29

# Source: US12629341B2 (priority 2019, dated 2026)
